Structures can show the parent of a compound that is named as a salt.

The values below come from patent US4432984A, “Anti-hypertensive benzodioxan derivatives” (Bouchara; Emile, priority 1981, dated 1984).

Series [1] in a line: Acute toxicity in mice by the oral route. The note with it: mouse, in vivo, per os, read-out: Approximate lethal dose 50 (LD50). The method, then: Toxicity was determined in mice by the oral route.
Another series deals with central nervous system. Description: Effects on the central nervous system in mice. The note with it: oral, same dosages which induce an anti-hypertensive activity in rats. It counts as in vivo. The text has this: Such central effects may be directly related to the hypotensive action.

Regarding `O=C(c1ccc(F)cc1)C1CCN(CC2COc3ccccc3O2)CC1` (centres unmarked) [Example 2, 1-[(2,3-Dihydro-4H-1,4-benzodioxin)-2-ylmethyl]-4-(4-fluorobenzoyl)piperidine hydrochloride], in series [1], the LD50 (usually the dose expected to kill half of the subjects tested) was 495 to 655 mg/kg. Further, in the series on central nervous system, the aggressiveness result is on record as “a decrease of the aggressiveness”, the experimentally-induced sleep entry is “a potentiation of the experimentally-induced sleep” and the sedation entry is listed as “a state of sedation”.

In the case of `O=C(Oc1ccc(C(=O)C2CCN(CC3COc4ccccc4O3)CC2)cc1)c1cccnc1` (centres unmarked) [Example 8, 1-[(2,3-Dihydro-4H-1,4-benzodioxin)-2-ylmethyl]-4-(4-hydroxybenzoyl)piperidine nicotinate], the LD50 in series [1] was above 3200 mg/kg.
